For this test, the system named is BDF1 mice, Adenocarcinoma 755 s.c., tumor weight T/C. The experiment in a line: NCI In Vivo Anticancer Drug Screen. Data for tumor model Adenocarcinoma 755 (subcutaneous) in B6D2F1 (BDF1) mice. The note with it: endpoint: mean tumor weight, higher = larger tumour. Put shortly: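 Tumor-bearing mice receive test compound while controls get vehicle alone. Antitumor effect is scored from survival or tumor dimensions as a T/C quotient.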

[1] abbreviates: dose: 30.0 mg/kg/injection, schedule: Q01DX011 (ip), vehicle: methylcellulose (MC).
Where [2] appears, read: dose: 120.0 mg/kg/injection, schedule: Q01DX011 (ip), vehicle: methylcellulose (MC).

Molecules are shown by their SMILES. “And” between values parts separate entries of the source, which are not always exact repeats. Equal values may be shown once.

For orientation: T/C means the result in the treated group divided by that in the control group, in per cent. As for `C[C@]12CCCC[C@@H]1CC[C@@H]1[C@@H]2[C@@H](O)C[C@]2(C)[C@@H](N)CC[C@@H]12`, the T/C was 106 % of control (dose: 22.0 mg/kg/injection, schedule: Q01DX011 (sc), vehicle: steriod suspending solution) and 74 % of control (dose: 44.0 mg/kg/injection, schedule: Q01DX011 (sc), vehicle: steriod suspending solution).

Consider `CC1(C)C(=O)CC[C@@]2(C)C1=CC[C@@H]1[C@@H]2CC[C@@]2(C)[C@H]1CC[C@]2(C)O`, for which the T/C (dose: 25.0 mg/kg/injection, schedule: Q01DX011 (sc), vehicle: steriod suspending solution) is 105 % of control; the T/C (dose: 200.0 mg/kg/injection, schedule: Q01DX011 (sc), vehicle: steriod suspending solution) was 92 % of control; the T/C (dose: 400.0 mg/kg/injection, schedule: Q01DX011 (sc), vehicle: steriod suspending solution) was 87 % of control.

Regarding `CC[N+]([O-])(CC)c1n(C)c2c(=O)n(C)c(=O)n(C)c2[n+]1[O-]`, the T/C runs as follows: under setting [1], 93 % of control; (dose: 60.0 mg/kg/injection, schedule: Q01DX011 (ip), vehicle: methylcellulose (MC)) 96 % of control; under setting [2], 110 % of control; (dose: 240.0 mg/kg/injection, schedule: Q01DX011 (ip), vehicle: methylcellulose (MC)) 70 % of control.

`O=C(Nc1ccc(C2=NCCS2)cc1)c1ccc(C(=O)Nc2ccc(C3=NCCS3)cc2)cc1`: the T/C is 118 % of control under setting [1] and 121 % of control under setting [2].

Regarding `CCOC(N)=O`, the T/C is 52 % of control (dose: 62.5 mg/kg/injection, schedule: Q#A X022 (ip), vehicle: saline); 79 % of control (dose: 62.62 mg/kg/injection, schedule: Q01DX011 (ip), vehicle: carboxymethylcellulose (CMC)); 94 % of control (dose: 102.5 mg/kg/injection, schedule: Q01DX011 (ip), vehicle: carboxymethylcellulose (CMC)); 121 % of control (dose: 125.0 mg/kg/injection, schedule: Q01DX001 (ip), vehicle: saline); 75 % of control (dose: 125.0 mg/kg/injection, schedule: Q01DX006 (iv), vehicle: saline); 83 % of control (dose: 125.0 mg/kg/injection, schedule: Q01DX011 (im), vehicle: saline). Also, the T/C is 85 % of control (dose: 125.0 mg/kg/injection, schedule: Q01DX011 (ip), vehicle: methylcellulose (MC)); 68 % of control (dose: 125.0 mg/kg/injection, schedule: Q01DX011 (ip), vehicle: saline); 96 % of control (dose: 125.0 mg/kg/injection, schedule: Q01DX011 (sc), vehicle: saline); 104 % of control (dose: 125.0 mg/kg/injection, schedule: Q07DX002 (ip), vehicle: saline); 59 % of control (dose: 125.0 mg/kg/injection, schedule: Q#A X022 (ip), vehicle: saline); 63 % of control (dose: 125.25 mg/kg/injection, schedule: Q01DX011 (ip), vehicle: carboxymethylcellulose (CMC)). Moreover, the T/C was 41 % of control and 50 % of control (dose: 200.4 mg/kg/injection, schedule: Q01DX011 (ip), vehicle: carboxymethylcellulose (CMC)); 116 % of control (dose: 205.0 mg/kg/injection, schedule: Q01DX011 (ip), vehicle: carboxymethylcellulose (CMC)); 92 % of control and 93 % of control (dose: 250.0 mg/kg/injection, schedule: Q01DX001 (ip), vehicle: saline); 74 % of control (dose: 250.0 mg/kg/injection, schedule: Q01DX006 (iv), vehicle: saline); 65 % of control (dose: 250.0 mg/kg/injection, schedule: Q01DX011 (im), vehicle: saline); 53 % of control (dose: 250.0 mg/kg/injection, schedule: Q01DX011 (ip), vehicle: methylcellulose (MC)). The T/C runs as follows: (dose: 250.0 mg/kg/injection, schedule: Q01DX011 (ip), vehicle: saline) 51 % of control; (dose: 250.0 mg/kg/injection, schedule: Q01DX011 (oral), vehicle: saline) 69 % of control; (dose: 250.0 mg/kg/injection, schedule: Q01DX011 (sc), vehicle: saline) 67 % of control; (dose: 250.0 mg/kg/injection, schedule: Q07DX002 (ip), vehicle: saline) 85 % of control; (dose: 250.0 mg/kg/injection, schedule: Q#A X022 (ip), vehicle: saline) 9 % of control; (dose: 328.0 mg/kg/injection, schedule: Q01DX011 (ip), vehicle: carboxymethylcellulose (CMC)) 41 % of control and 52 % of control. Further, the T/C by setting is: (dose: 375.0 mg/kg/injection, schedule: Q03DX004 (ip), vehicle: saline) 59 % of control; (dose: 500.0 mg/kg/injection, schedule: Q01DX001 (ip), vehicle: saline) 110 % of control and 85 % of control; (dose: 500.0 mg/kg/injection, schedule: Q01DX006 (iv), vehicle: saline) 38 % of control; (dose: 500.0 mg/kg/injection, schedule: Q01DX011 (im), vehicle: saline) 32 % of control; (dose: 500.0 mg/kg/injection, schedule: Q01DX011 (ip), vehicle: methylcellulose (MC)) 33 % of control; (dose: 500.0 mg/kg/injection, schedule: Q01DX011 (ip), vehicle: saline) 19 % of control. Further, the T/C runs as follows: (dose: 500.0 mg/kg/injection, schedule: Q01DX011 (oral), vehicle: saline) 20 % of control; (dose: 500.0 mg/kg/injection, schedule: Q01DX011 (sc), vehicle: saline) 42 % of control; (dose: 500.0 mg/kg/injection, schedule: Q07DX002 (ip), vehicle: saline) 83 % of control; (dose: 501.0 mg/kg/injection, schedule: Q01DX011 (ip), vehicle: carboxymethylcellulose (CMC)) 17 % of control and 27 % of control; (dose: 546.6 mg/kg/injection, schedule: Q01DX011 (ip), vehicle: carboxymethylcellulose (CMC)) 22 % of control and 23 % of control; (dose: 750.0 mg/kg/injection, schedule: Q03DX004 (ip), vehicle: saline) 54 % of control. Further, the T/C reads like this: (dose: 820.0 mg/kg/injection, schedule: Q01DX011 (ip), vehicle: carboxymethylcellulose (CMC)) 10 % of control and 20 % of control; (dose: 1000.0 mg/kg/injection, schedule: Q01DX001 (ip), vehicle: saline) 49 % of control and 64 % of control; (dose: 1000.0 mg/kg/injection, schedule: Q01DX006 (iv), vehicle: saline) 21 % of control; (dose: 1000.0 mg/kg/injection, schedule: Q07DX002 (ip), vehicle: saline) 69 % of control.

Take `CCOC(=O)c1cnc(SCc2ccccc2Cl)nc1N1CC1`: the T/C by setting is: (dose: 8.0 mg/kg/injection, schedule: Q01DX011 (ip), vehicle: carboxymethylcellulose (CMC)) 54 % of control; (dose: 8.0 mg/kg/injection, schedule: Q01DX011 (ip), vehicle: other) 110 % of control; (dose: 16.0 mg/kg/injection, schedule: Q01DX011 (ip), vehicle: carboxymethylcellulose (CMC)) 75 % of control; (dose: 16.0 mg/kg/injection, schedule: Q01DX011 (ip), vehicle: other) 70 % of control; (dose: 28.0 mg/kg/injection, schedule: Q01DX011 (ip), vehicle: carboxymethylcellulose (CMC)) 29 % of control; (dose: 28.0 mg/kg/injection, schedule: Q01DX011 (ip), vehicle: other) 62 % of control. Moreover, the T/C is 16 % of control (dose: 56.0 mg/kg/injection, schedule: Q01DX011 (ip), vehicle: carboxymethylcellulose (CMC)) and 22 % of control (dose: 56.0 mg/kg/injection, schedule: Q01DX011 (ip), vehicle: other).

Regarding `O=C(NP(=O)(N1CC1)N1CC1)OCc1ccccc1`, the T/C runs as follows: (dose: 0.38 mg/kg/injection, schedule: Q01DX011 (ip), vehicle: saline) 68 % of control; (dose: 0.75 mg/kg/injection, schedule: Q01DX011 (ip), vehicle: saline) 35 % of control; (dose: 1.5 mg/kg/injection, schedule: Q01DX011 (ip), vehicle: saline) 53 % of control; (dose: 2.25 mg/kg/injection, schedule: Q01DX011 (ip), vehicle: other) 74 % of control; (dose: 2.25 mg/kg/injection, schedule: Q01DX011 (ip), vehicle: saline) 115 % of control; (dose: 3.0 mg/kg/injection, schedule: Q01DX011 (ip), vehicle: saline) 18 % of control and 35 % of control. For the same molecule, the T/C is 83 % of control (dose: 4.5 mg/kg/injection, schedule: Q01DX011 (ip), vehicle: other); 98 % of control (dose: 4.5 mg/kg/injection, schedule: Q01DX011 (ip), vehicle: saline); 18 % of control (dose: 6.0 mg/kg/injection, schedule: Q01DX011 (ip), vehicle: saline); 52 % of control (dose: 9.0 mg/kg/injection, schedule: Q01DX011 (ip), vehicle: other); 56 % of control (dose: 9.0 mg/kg/injection, schedule: Q01DX011 (ip), vehicle: saline); 2 % of control (dose: 12.0 mg/kg/injection, schedule: Q01DX011 (ip), vehicle: saline). Moreover, the T/C by setting is: (dose: 18.0 mg/kg/injection, schedule: Q01DX011 (ip), vehicle: other) 12 % of control; (dose: 18.0 mg/kg/injection, schedule: Q01DX011 (ip), vehicle: saline) 29 % of control; (dose: 24.0 mg/kg/injection, schedule: Q01DX011 (ip), vehicle: saline) 1 % of control.

Values taken from PubChem BioAssay AID180 (DTP/NCI, 2004).
